# Where “and” joins values, the source holds several entries; their conditions need not be identical. Equal entries are not always repeated. Marks after values point to notes of the source that are not given here.
# Key:
# [1] = tested on: PC-3 human prostate carcinoma cells; assay: Wound healing (two-dimensional migration) assay, PC-3; assay type: cell-based; conditions: PC-3, 10.00 μmol/l, 36 h (FIG. 1F)
# Procedure: (§1) 1) Cell lines: Cell lines of 5637 human bladder carcinoma, Eca-109 human esophageal carcinoma, HT29 human colon cancer, SGC-7901 human gastric cancer, A549 human lung adenocarcinoma and PC-3 human prostate carcinoma were purchased from the Type Culture Collection of the Chinese Academy of Sciences, Shanghai, China.
# 3) Methods: The cells were trypsinized to generate a single-cell suspension and seeded in 96-well plates (200 μl/well), and incubated with medium containing 10% fetal bovine serum at 37 in a humidified atmosphere with 5% CO2. Following a 24 h incubation, the cells were starved for an additional 12 h in low-serum media (1% FBS). The cultures of Eca-109, HT29, 5637, SGC-7901, A549 and PC-3 were then scratched away with a 200-μl plastic pipette tip and rinsed twice with PBS to remove wound-derived loose and dislodged cells. […] The average scraped area in each well under each treatment condition was measured, and the percentage of inhibition against cell migration was calculated. % of inhibition=1−(A0−At)/(A′0−A′t)×100%, where, A0 and At are the areas of wound with compound treatment measured immediately and 24 or 36 h post-injury, respectively; A′0 and A′t are the areas of wound without compound treatment measured immediately and 24 or 36 h post-injury, respectively.
# [2] = tested on: Hela human cervical carcinoma; assay: Colony formation assay, Hela; assay type: cell-based; conditions: Hela; read-out: Inhibition against tumor cell colony formation IC50
# Procedure: (§2) 1) Cell lines: Cell lines of SGC-7901 human gastric cancer, A549 human lung adenocarcinoma and Hela human cervical carcinoma were purchased from the Type Culture Collection of the Chinese Academy of Sciences, Shanghai, China.
# (§3) 3) Method: Colony formation assay was used. The cells were trypsinized to generate a single-cell suspension and seeded in a 6-well plate at a density of 100 cells/well, then drug-containing medium was added to the well to make the final concentration of compound to 0, 1.25, 2.50, 5.00, 7.50, 10.00 μmol/L, respectively. The experiments were performed in duplicate, and the cells were cultured at 37 in a humidified atmosphere with 5% CO2. Terminate cell culture when the clones can be seen in the culture plate, then remove the culture medium, and wash twice with PBS, fix the cells with methanol (5 ml/well) for 15 min and stain the cells with hematoxylin-eosin stain. The number of clones which comprised more than 50 cells was counted under a TS100-F-PH microscope (Nikon Company, Japan). Calculate relative colony formation ratio (%) and the IC50 values. Relative colony formation ratio (%)=(colony number of drug-administration well/colony number of control well)×100%.
# [3] = tested on: A549 human lung adenocarcinoma; assay: Colony formation assay, A549; assay type: cell-based
# Procedure: as §2, §3
# [4] = tested on: 5637 human urinary bladder cancer cells; assay: Wound healing (two-dimensional migration) assay, 5637; assay type: cell-based; conditions: 5637, 10.00 μmol/l, 24 h (FIG. 1C)
# Procedure: as §1
# 3) Methods: The cells were trypsinized to generate a single-cell suspension and seeded in 96-well plates (200 μl/well), and incubated with medium containing 10% fetal bovine serum at 37 in a humidified atmosphere with 5% CO2. Following a 24 h incubation, the cells were starved for an additional 12 h in low-serum media (1% FBS). The cultures of Eca-109, HT29, 5637, SGC-7901, A549 and PC-3 were then scratched away with a 200-μl plastic pipette tip and rinsed twice with PBS to remove wound-derived loose and dislodged cells. The cells were cultured in replaced medium without or with compounds at final concentrations of 0, 2.50, 5.00 and 10.00 μmol/L, respectively. At least seven randomly selected views along the scraped line in each well were photographed immediately and 24 h and 36 h after incubation using a digital camera at 50× magnification. The average scraped area in each well under each treatment condition was measured, and the percentage of inhibition against cell migration was calculated. % of inhibition=1−(A0−At)/(A′0−A′t)×100%, where, A0 and At are the areas of wound with compound treatment measured immediately and 24 or 36 h post-injury, respectively; A′0 and A′t are the areas of wound without compound treatment measured immediately and 24 or 36 h post-injury, respectively.
# [5] = tested on: SGC-7901 human gastric cancer; assay: Colony formation assay, SGC-7901; assay type: cell-based
# Procedure: as §2, §3
# [6] = assay type: in vivo, mouse; conditions: C57BL/6 mice, before vs 24 d after administration, Cyc 30 mg/kg ig
# Procedure: (§4) 4) Method: B16-F10 cells in logarithmic growth phase were trypsinized, then resuspended in RPMI1640 medium containing 10% fetal bovine serum and centrifuged at 1000 rpm for 5 min. The supernatant was removed and sterile PBS was added to prepare single-cell suspension (10^7/mL). The murine melanoma lung metastasis model was established in mice via caudal vein injection of B16-F10 cells (0.2 ml/mouse). Mice were randomly divided into 4 groups (n=5) according to body weight, and 24 h later they were administrated intragastrically (ig; 0.2 ml/10 g) once a day continuously for 24 d with vehicle (tumor control group), Cyc (30 mg/kg), compound 3 at 0.85 mmol/kg and 1.10 mmol/kg. Mice were weighed and blood was collected by removing the eyeball at 24 h after the last administration. Sacrificed the mice, removed the lung and counted the number of melanoma nodules in lungs of mice under an anatomical lens. Serum obtained after centrifugation at 3000 rpm for 20 min (3K30 refrigerated centrifuge, Sigma, USA) was conserved at −20° C. Levels of TNF-α and IL-1β in serum were measured by ELISA method, which were performed in accordance with the instructions of the kits.
# Murine hepatoma H22 = assay: Anti-tumor and anti-angiogenesis effects on H22 tumor-bearing mice; assay type: in vivo, mouse; conditions: H22 mice, 20.00 mg/kg ig once a day 7 d
# Text: 1) Animals: Kunming mice of clean grade, half male and half female, body weight 20±2 g, were purchased from the experimental animal center of Henan Province, China. Qualified Certificate number: SCXK (Yu) 2005-0001.
# 2) Cells: Murine hepatoma H22 cells were presently obtained from Henan Academy of Medical and Pharmaceutical Sciences (Zhengzhou, China).
# Cyclophosphamide (Cyc) was produced by Tianjin Jingshi Pharmaceutical Co., Ltd., China (approval number of medicine: H12021006). Gelatin and carmine red were supplied by Sigma Chemical (St. Louis, Mo., U.S.A). All other chemicals and reagents were of the highest commercial grade available. All drugs were prepared with normal saline emulsified with Tween-80 (0.1% v/v) and dispersed in carboxymethylcellulose (0.5% v/v). 10% (W/V) carmine solution was prepared with salt solution containing 5% (W/V) gelatin which should be used immediately after preparation. The rest of medicines and reagents and the methods for preparation were the same with that of EXAMPLE 1.
# 4) Method: The H22 cells after in vivo passage for 7 d were diluted with physiological saline to adjust to a concentration of 1×10^7/mL, injected to the armpit of right forelimb of mice subcutaneously (0.2 ml/mouse), then mice were divided into 10 groups (n=12; 6 male and 6 female per group) randomly. 24 h later each group of mice was administrated intragastrically (ig; 0.2 ml/10 g) once a day continuously for 7 d with vehicle (tumor control group and control group), Cyc (standard control), or compounds at the tested doses. After the last drug administration and a following fasting of 8 h, each mouse was anesthetized with 1% pentobarbital in normal saline solution (80 mg/kg; ip). Mice of control group were injected with 5% gelatin in normal saline solution (40) via the tail vein (1 ml/mouse); whereas mice of other groups were injected replaced by 10% carmine red and 5% gelatin in normal saline solution (40). Mice were killed, then freezed in a refrigerator at −20 for 2 h to solidify. Tumors were segregated, weighed and homogenized with 3 M NaOH solution (10 ml/g tumor). The homogenate supernatant was prepared by being centrifuged for 20 min at 14000 rpm, and the absorbance at 490 nm was assayed using a PowerWaveX Microplate Scanning Spectrophotometer (Bio-tek Instruments, Inc). The carmine red content was calculated based on the standard curve. The vascular index (VI) expressed as milligram of carmine red per gram of tumor tissue. The inhibition ratio (IR) of tumor growth was calculated using the formula: IR (%)=[(Wc−Wt)/Wc]×100%, where Wc is the average tumor weight of the control group, and Wt is that of the drug treatment group. Data were expressed as mean±SD and statistical analysis was performed by SPSS Statistics 17.0 using a one-way analysis of variance (ANOVA) followed by unpaired t-test. A value of P<0.05 was considered statistically significant.
# S180 murine sarcoma = assay: Growth, invasion and metastasis of S180 sarcoma in tumor-bearing mice; assay type: in vivo, mouse
# Procedure: 1) Animals: Be the same with that of EXAMPLE 4.
# 2) Cells: The S180 murine sarcoma cells were obtained from Henan Academy of Medical and Pharmaceutical Sciences (Zhengzhou, China).
# 4) Method: Mice were randomly divided into 10 groups (n=12). The S180 cells after in vivo passage for 7 d were diluted with physiological saline to adjust to a concentration of 1×10^7/mL. The inoculation of tumor cells was conducted in two batches, those of tumor control group I and groups treated with compounds 1 or 3 were in batch 1, those of tumor control group II, Cyc group and the compound 2 groups were in batch 2. The mice were injected with S180 cells (0.2 ml/mouse) into the armpit of right forelimb subcutaneously, and 24 h later each group of mice was administrated intragastrically (ig; 0.2 ml/10 g) once a day continuously for 9 d with vehicle (tumor control group), Cyc (standard control), or compounds at the tested doses. On day 10, kill the mice, observe and record the degree of invasion and metastasis of tumor tissues, then the tumor tissues were segregated and weighed. The inhibition ratio (IR) of tumor growth was calculated by the following formula: IR (%)=[(Wc−Wt)/Wc]×100%, where Wc is the average tumor weight of the control group, and Wt is that of the treatment group. Data were expressed as mean±SD and statistical analysis was performed by SPSS Statistics 17.0 using a one-way analysis of variance (ANOVA) followed by unpaired t-test. A value of P<0.05 was considered statistically significant.
# [7] = tested on: B16-F10 mouse melanoma cells; assay type: in vivo; conditions: B16-F10, C57BL/6 mice, 30.00 mg/kg ig 24 d
# Procedure: 1) Animals: A total of 20 C57BL/6 male mice of clean grade [Number of Animal License: SCXK (Xiang) 2009-0004], weighing 18-22 g, were purchased from Hunan Slca Jingda Experimental Animal Center Company, Ltd., China.
# 2) Cells: B16-F10 mouse melanoma cells were purchased from Nanjing KeyGen Biotech. Co. Ltd., China.
# as §4
# Data were expressed as mean±SD and statistical analysis was performed by SPSS Statistics 17.0 using a one-way analysis of variance (ANOVA) followed by unpaired t-test. A value of P<0.05 was considered statistically significant. The inhibition ratio (IR %) of lung metastasis was calculated as follows: IR %=(Nc−Nt)/Nc×100%, where Nc is the average number of nodules in lung tissues of vehicle, and Nt is that of mice treated with drugs.
# TNF-α = assay type: in vivo, mouse; conditions: mouse, in vivo, 30 mg/kg
# IL-1β = assay type: in vivo, mouse; conditions: mouse, in vivo, 30 mg/kg
# [8] = read-out: Inhibition against tumor cell colony formation IC50
compound,measurement,setting,value
C=C1CCC2C(C)(CO)C(O)CCC2(C)C1C=CC1=CC(=Cc2ccccc2)OC1=O (centres unmarked) [Compound 4],Inhibitory effect on two-dimensional migration,[1],much stronger than that of other tumor cells
same,IC50,[2],4.84 µM
same,Inhibition of colony formation compared with andrographolide,[3],remarkably stronger than that of andrographolide
same,IC50,[3]; [8],4.51 µM
same,Inhibitory effect on two-dimensional migration,[4],much stronger than that of other tumor cells
same,Inhibition of colony formation compared with andrographolide,[5],remarkably stronger than that of andrographolide
same,IC50,[5]; [8],5.07 µM
"O=P1(N(CCCl)CCCl)NCCCO1 (centres unmarked) [Cyc, Cyclophosphamide, reference compound]",Average increase in body weight,[6],0.7 g
same,IR (%) of tumor growth,Murine hepatoma H22,29.34* %
same,Carmine contents,Murine hepatoma H22; mean ± s,4.24 ± 2.29
same,"VI (vascular index, mg carmine red per g tumor tissue)",Murine hepatoma H22; mean ± s,4.87 ± 1.13 mg/g
same,IR (%) of S180 sarcoma growth,S180 murine sarcoma; 30.00 mg/kg ig once a day 9 d,53.61% and 53.61 ± 12.43 %
same,Average invasion and metastasis grade,"S180 murine sarcoma; S180, grades 0-4, 30.00 mg/kg",3.67
same,Mouse Number Grade 0,"S180 murine sarcoma; S180 invasion, Grade 0: no invasion, 30.00 mg/kg",0
same,Mouse Number Grade 1,"S180 murine sarcoma; S180 invasion, Grade 1: invasion to right forelimb, 30.00 mg/kg",0
same,Mouse Number Grade 2,"S180 murine sarcoma; S180 invasion, Grade 2: right forelimb and the left side of body, 30.00 mg/kg",0
same,Mouse Number Grade 3,"S180 murine sarcoma; S180 invasion, Grade 3: also the ribs and muscles in chest, 30.00 mg/kg",4
same,Mouse Number Grade 4,"S180 murine sarcoma; S180 invasion, Grade 4: invasion into chest or abdominal cavity, 30.00 mg/kg",8
same,IR (%) of lung metastasis,[7]; 30 mg/kg,47.92%
same,Lung index,"[7]; mean ± s, n = 5",6.66 ± 0.37 mg/g
same,Nodule number (melanoma nodules in lungs),"[7]; mean ± s, n = 5",43.76 ± 11.70
same,TNF-α in serum,TNF-α,8.45 ± 9.54
same,IL-1β in serum,IL-1β,41.58 ± 4.39 pg/mL
